The text below walks through data of patent US9776965B2, “Pyrrolidin-2-one and piperidin-2-one derivatives as 11-beta hydroxysteroid dehydrogenase inhibitors” (Janssen Pharmaceutica N.V., priority 2004, dated 2017).

The target of test [1] is T1, 11b-HSD1 (Mus musculus, UniProt P50172).
T1 construct: Fibroblasts were differentiated into adipocytes; endogenous in cells; host or cells: differentiated 3T3-L1 cells (ATCC-CL-173)
Put plainly: Cellular assay, 11b-HSD1 activity in differentiated 3T3-L1 cells. Conditions: 4 hour pre-incubation; for IC50: read-out: [C2] HSD1 cellular 3T3-L1 Score. In kind it is cell-based. The procedure:
The effects on 11b-HSD1 activity was measured in differentiated 3T3-L1 cells and rat hepatocytes.
Mouse fibroblast 3T3-L1 cells (ATCC-CL-173) were seeded at a density of 16500 cells/ml in 12 well plates and grown for 7 days in DMEM medium (supplemented with 10% heat inactivated foetal calf serum, 2 mM glutamine and 25 mg gentamycin) at 37 C in a humidified 5% CO2 atmosphere. Medium was refreshed twice a week. Fibroblasts were differentiated into adipocytes at 37 C in a 5% CO2 humidified atmosphere in growth medium containing 2 μg/ml insulin, 55 μg/ml IBMX and 39.2 μg/ml dexamethasone.
Following a 4 hour pre-incubation with test compound, 0.5 μCi ^3H-cortisone or dehydrocorticosterone, was added to the cultures. One hour later, the medium was extracted on Extrelut^3-columns with 15 ml diethyl ether and the extract was analysed by HPLC as described above.
As for the enzymatic assays, the compounds to be tested were taken from a stock solution and tested at a final concentration ranging from […] to 3.10^−9M. From the thus obtained dose response curves, the pIC50 value was calculated and scored as follows; Score 1=pIC50 value<5, Score 2=pIC50 value in the range of 5 to 6, Score 3=pIC50 value>6. Some of the thus obtained results are summarized in the table below (in this table NT stands for Not Tested).

Test [2] deals with 11b-HSD1 (Homo sapiens, UniProt P28845). Kind of test: Enzymatic assay, 11b-HSD1 dependent conversion of cortisone into cortisol (reductase activity). In kind it is biochemical. The settings on record: recombinant protein, 2 μM cortisone, 45 min at 37 C; for IC50: read-out: [C1] HSD1-prot Reduct Score. On the procedure: The effects of compounds on 11b-HSD1 dependent conversion of cortisone into cortisol (reductase activity) was studied in a reaction mixture containing 30 mM Tris-HCl buffer pH 7.2, 180 μM NADPH, 1 mM EDTA, 2 μM cortisone, 1 μl drug and/or solvent and 11 μg recombinant protein in a final volume of 100 μl.
All incubations were performed for 45 min at 37 C in a water bath. The reaction was stopped by adding 100 μl acetonitrile containing 20 μg corticosterone as internal standard. After centrifugation, the product formation was analysed in the supernatant by HPLC on a Hypersyl BDS-C18 column using 0.05 mM ammonium acetate/methanol (50/50) as solvent. In all of the aforementioned assays, the drugs to be tested were taken from a stock solution and tested at a final concentration ranging from […] to 3.10^−9M. From the thus obtained dose response curves, the pIC50 value was calculated and scored as follows; Score 1=pIC50 value<5, Score 2=pIC50 value in the range of 5 to 6, Score 3=pIC50 value>6. (in this table NT stands for Not Tested).

T1 sequence (P50172 whole entry): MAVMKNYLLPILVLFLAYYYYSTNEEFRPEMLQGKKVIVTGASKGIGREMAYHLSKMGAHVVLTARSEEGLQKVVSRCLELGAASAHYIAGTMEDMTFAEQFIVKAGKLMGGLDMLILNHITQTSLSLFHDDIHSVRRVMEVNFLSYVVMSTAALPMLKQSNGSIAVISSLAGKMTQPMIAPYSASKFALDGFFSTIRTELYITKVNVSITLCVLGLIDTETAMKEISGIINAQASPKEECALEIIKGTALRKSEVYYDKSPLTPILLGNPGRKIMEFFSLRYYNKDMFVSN
11b-HSD1 (Homo sapiens, UniProt P28845), sequence (P28845 whole entry): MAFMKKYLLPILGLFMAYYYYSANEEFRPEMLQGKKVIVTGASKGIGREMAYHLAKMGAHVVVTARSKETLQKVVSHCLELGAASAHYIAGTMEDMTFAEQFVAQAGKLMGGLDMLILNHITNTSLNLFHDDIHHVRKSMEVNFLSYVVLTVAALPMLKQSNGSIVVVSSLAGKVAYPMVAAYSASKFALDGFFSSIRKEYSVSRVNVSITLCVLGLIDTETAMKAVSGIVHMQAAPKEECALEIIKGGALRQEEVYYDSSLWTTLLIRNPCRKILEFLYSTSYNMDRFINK

As to `C[C@@H](c1ccccc1)N1CC[C@@H](Cc2cccc(Cl)c2Cl)C1=O` [Compound 12], the IC50 at 11b-HSD1 [1] and at 11b-HSD1 [2] was 1 to 10 µM throughout.
In the case of `C[C@@H](c1ccccc1)N1CC[C@H]([C@@](C)(O)c2ccc(CCBr)cc2)C1=O` [Compound 117], the IC50 on 11b-HSD1 [1] and on 11b-HSD1 [2] was below 1 µM each time.
With `Cc1ccc(C[C@H]2CCN([C@H](C)c3ccccc3)C2=O)cc1` [Compound 26], the IC50 on 11b-HSD1 [1] was 1 to 10 µM; at 11b-HSD1 [2], above 10 µM.
For `C[C@H](c1ccccc1)N1CC[C@H](Cc2ccccc2)C1=O` [Compound 36] the same measures were 1 to 10 µM and above 10 µM.
Consider `COc1cccc(C[C@H]2CCN([C@@H](C)c3ccccc3)C2=O)c1` [Compound 19], for which the IC50 at 11b-HSD1 [1] is below 1 µM; at 11b-HSD1 [2] it was 1 to 10 µM.
For `C[C@@H](c1ccccc1)N1CC[C@H](Cc2cccc(Cl)c2Cl)C1=O` [Compound 11], the IC50 on 11b-HSD1 [1] was 1 to 10 µM; at 11b-HSD1 [2], below 1 µM.
For `Cc1ccccc1CC1CCN(CCCc2ccccc2)C1=O` (centres unmarked) [Compound 110] the same measures were 1 to 10 µM and 1 to 10 µM.
For `COc1ccccc1C[C@@H]1CCN([C@H](C)c2ccccc2)C1=O` [Compound 38] the same measures were 1 to 10 µM and above 10 µM.
With `O=C1C(Cc2ccc(F)cc2Cl)CCCN1CCc1ccccc1` (centres unmarked) [Compound 88], the IC50 at 11b-HSD1 [1] and on 11b-HSD1 [2] was 1 to 10 µM throughout.
Take `CC[C@]1(Cc2ccccc2C)CCN([C@H](C)c2ccccc2)C1=O` [Compound 145]: the IC50 at 11b-HSD1 [1] and on 11b-HSD1 [2] was above 10 µM throughout.
Regarding `C[C@@H](C[C@@H]1CCN([C@@H](C)c2ccccc2)C1=O)c1ccccc1` [Compound 134], the IC50 at 11b-HSD1 [1] and at 11b-HSD1 [2] was below 1 µM in each case.
In the case of `COc1ccc(CC[C@H]2CCN([C@@H](C)c3ccccc3)C2=O)cc1` [Compound 133], the IC50 was 1 to 10 µM on 11b-HSD1 [1] and above 10 µM on 11b-HSD1 [2].
For `C[C@H](c1ccccc1)N1CC[C@@H](Cc2c(Cl)cccc2Cl)C1=O` [Compound 44] the same measures were 1 to 10 µM and above 10 µM.
On to `CCCC1(Cc2ccccc2C)CCN([C@@H](C)c2ccccc2)C1=O` (mixture of isomers) [Compound 146], for which the IC50 at 11b-HSD1 [1] and at 11b-HSD1 [2] was above 10 µM throughout.
With `O=C1C(Cc2ccccc2Cl)CCN1CCCc1ccccc1` (centres unmarked) [Compound 111], the IC50 on 11b-HSD1 [1] and on 11b-HSD1 [2] was 1 to 10 µM throughout.
On to `O=C1C(Cc2cccc(Cl)c2Cl)CCN1Cc1ccccc1` (centres unmarked) [Compound 58], for which the IC50 at 11b-HSD1 [1] and at 11b-HSD1 [2] was 1 to 10 µM in each case.
Consider `C[C@H](C[C@@H]1CCN([C@@H](C)c2ccccc2)C1=O)c1ccccc1` [Compound 136], for which the IC50 at 11b-HSD1 [1] and at 11b-HSD1 [2] was 1 to 10 µM each time.
Consider `O=C1C(Cc2ccccc2)CCN1CCc1ccccc1` (centres unmarked) [Compound 34], for which the IC50 at 11b-HSD1 [1] is 1 to 10 µM; on 11b-HSD1 [2] it was above 10 µM.
For the compound `Cc1ccccc1CC1CCN(Cc2ccccc2)C1=O` (centres unmarked) [Compound 55], the IC50 on 11b-HSD1 [1] is 1 to 10 µM; at 11b-HSD1 [2], above 10 µM.
For `C[C@@H](c1ccccc1)N1CC[C@@H](CCc2ccccc2)C1=O` [Compound 72] the same measures were 1 to 10 µM and above 10 µM.
On to `CC[C@H](C[C@@H]1CCN([C@@H](C)c2ccccc2)C1=O)c1ccccc1` [Compound 138], for which the IC50 on 11b-HSD1 [1] and on 11b-HSD1 [2] was 1 to 10 µM throughout.
On to `COC[C@H](c1ccccc1)N1CC[C@H](Cc2c(Cl)cccc2Cl)C1=O` [Compound 98], for which the results for the IC50 at 11b-HSD1 [1] and on 11b-HSD1 [2] were 1 to 10 µM and above 10 µM, respectively.
For `CC[C@@H](C[C@@H]1CCN([C@@H](C)c2ccccc2)C1=O)c1ccccc1` [Compound 139] the same measures were below 1 µM and below 1 µM.
For `C[C@@H](c1ccccc1)N1CC[C@@H](Cc2ccc(F)cc2Cl)C1=O` [Compound 151] the same measures were below 1 µM and below 1 µM.
Take `Cc1cccc(C)c1C[C@@H]1CCN([C@@H](C)c2ccccc2)C1=O` [Compound 76]: on 11b-HSD1 [1], the “[C2] HSD1 cellular 3T3-L1 Score” value is recorded as 2 (Score 2=pIC50 value in the range of 5 to 6). Besides, the “[C1] HSD1-prot Reduct Score” value on 11b-HSD1 [2] is given as 3 (Score 3=pIC50 value>6).
Take `COc1ccccc1CC[C@H]1CCN([C@@H](C)c2ccccc2)C1=O` [Compound 124]: the IC50 on 11b-HSD1 [1] and on 11b-HSD1 [2] was 1 to 10 µM in each case.
As for `C[C@H](c1ccccc1)[C@H]1CCN([C@@H](C)c2ccccc2)C1=O` [Compound 159], the IC50 on 11b-HSD1 [1] and at 11b-HSD1 [2] was below 1 µM throughout.
For the compound `Cc1ccccc1CC[C@H]1CCN([C@@H](C)c2ccccc2)C1=O` [Compound 128], the IC50 at 11b-HSD1 [1] and on 11b-HSD1 [2] was 1 to 10 µM in each case.
For the compound `C[C@H](c1ccccc1)N1CC[C@H](Cc2cccc(Cl)c2)C1=O` [Compound 47], the IC50 is 1 to 10 µM at 11b-HSD1 [1] and above 10 µM on 11b-HSD1 [2].
For `Cc1cccc(C[C@H]2CCN([C@@H](C)c3ccccc3)C2=O)c1` [Compound 15] the same measures were 1 to 10 µM and 1 to 10 µM.
For `CC[C@@]1(Cc2ccccc2C)CCN([C@H](C)c2ccccc2)C1=O` [Compound 144] the same measures were above 10 µM and above 10 µM.
For `C[C@@H](c1ccccc1)N1CCC(CCc2cccc3ccccc23)(CCc2cccc3ccccc23)C1=O` [Compound 116] the same measures were above 10 µM and above 10 µM.
For `O=C1C(Cc2ccccc2)CCN1Cc1ccccc1` (centres unmarked) [Compound 61], the figures for the IC50 on 11b-HSD1 [1] and at 11b-HSD1 [2] were 1 to 10 µM and above 10 µM, respectively.
In the case of `COc1cccc(CC2CCN(Cc3ccccc3)C2=O)c1` (centres unmarked) [Compound 48], the values for the IC50 on 11b-HSD1 [1] and at 11b-HSD1 [2] were 1 to 10 µM and above 10 µM, respectively.
For `Cc1ccccc1CC1(Cc2ccccc2)CCN([C@@H](C)c2ccccc2)C1=O` (mixture of isomers) [Compound 147] the same measures were above 10 µM and above 10 µM.
As to `Cc1cccc(C)c1CC1CCN(CCc2ccccc2)C1=O` (centres unmarked) [Compound 83], the IC50 at 11b-HSD1 [1] was above 10 µM; on 11b-HSD1 [2] it was below 1 µM.
For `C[C@@H](c1ccccc1)N1CC[C@@H](Cc2cccc(Cl)c2)C1=O` [Compound 18] the same measures were 1 to 10 µM and 1 to 10 µM.
In the case of `C[C@@H](c1ccccc1)N1CC[C@@H](CCc2cccc3ccccc23)C1=O` [Compound 74], the IC50 on 11b-HSD1 [1] and at 11b-HSD1 [2] was 1 to 10 µM each time.
With `COc1cc(C[C@H]2CCN([C@@H](C)c3ccccc3)C2=O)ccc1OCc1ccccc1` [Compound 122], the IC50 on 11b-HSD1 [1] and on 11b-HSD1 [2] was 1 to 10 µM throughout.
As for `Cc1cccc(C[C@@H]2CCN([C@H](C)c3ccccc3)C2=O)c1` [Compound 63], the IC50 is 1 to 10 µM at 11b-HSD1 [1] and above 10 µM on 11b-HSD1 [2].
Take `COC[C@H](c1ccccc1)N1CC[C@@H](Cc2c(Cl)cccc2Cl)C1=O` [Compound 99]: the IC50 at 11b-HSD1 [1] and on 11b-HSD1 [2] was below 1 µM each time.
As to `C[C@H](c1ccccc1)N1CC[C@@H](Cc2cccc(Cl)c2)C1=O` [Compound 46], the IC50 on 11b-HSD1 [1] and at 11b-HSD1 [2] was above 10 µM each time.
As for `O=C1C(Cc2cccc(O)c2)CCN1Cc1ccccc1` (centres unmarked) [Compound 53], the IC50 on 11b-HSD1 [1] was 1 to 10 µM; on 11b-HSD1 [2] it was above 10 µM.
For `Cc1cccc(CC2CCN(CCc3ccccc3)C2=O)c1` (centres unmarked) [Compound 29] the same measures were 1 to 10 µM and 1 to 10 µM.
In the case of `O=C1C(Cc2ccc3c(c2)OCO3)CCN1CCc1ccccc1` (centres unmarked) [Compound 89], the IC50 at 11b-HSD1 [1] is 1 to 10 µM; on 11b-HSD1 [2], above 10 µM.
For `C[C@@H](c1ccccc1)N1CC[C@@H]([C@](C)(O)c2ccc(CCBr)cc2)C1=O` [Compound 118] the same measures were 1 to 10 µM and above 10 µM.
For `O=C1C(Cc2ccc(F)cc2Cl)CCN1CCCc1ccccc1` (centres unmarked) [Compound 112] the same measures were 1 to 10 µM and 1 to 10 µM.
For `Cc1ccc([C@@H](O)[C@H]2CCN([C@@H](C)c3ccccc3)C2=O)c(C)c1` [Compound 90] the same measures were 1 to 10 µM and above 10 µM.
For `Cc1cccc(C[C@H]2CCN([C@H](C)c3ccccc3)C2=O)c1` [Compound 68], the IC50 was 1 to 10 µM at 11b-HSD1 [1] and above 10 µM at 11b-HSD1 [2].
